Where a SMILES comes first, the peptide text is derived from it. Bridges are numbered along the chain shown (N, C = ends).
Key:
[1] = system: patients with chronic idiopathic constipation (CIC); assay type: in vivo
Protocol: (§1) A randomized, double-blind, placebo-controlled, 14-day repeat oral, dose ranging study was conducted in patients with chronic idiopathic constipation (CIC). […] One secondary objective was to assess the pharmacokinetic profile of SP-304 in plasma.
(§2) Subjects diagnosed with CIC were screened for the anticipated 4 cohorts to yield 80 randomized subjects for enrollment. […] Subjects who continued to meet all the entry criteria and complete the pre-treatment bowel movement (BM) diary received, in a double-blind, randomized fashion, SP-304 or matching placebo. The entry criteria included (1) meeting modified ROME III criteria for chronic constipation (CC); (2) no significant finding in colonoscopy within past 5 years; (3) good health as determined by physical examination, medical history, vital signs, ECG, clinical chemistry, hematology, urinalysis, drug screen and serology assessments; and (4) during 14-day pre-treatment period, subjects reporting <6 SBM and <3 CSBM in each pre-treatment week.
(§3) The majority of adverse events were mild/moderate and transient in nature. […] The table below is a GI-related adverse event (AE) summary.

[2] = Clinical study in CIC patients: pharmacokinetic profile of SP-304 in plasma; assay type: in vivo, Humans; settings: oral, 14 days, assay sensitivity ≥10 ng/mL
Protocol: as §1, §2, §3

[3] = system: patients with chronic idiopathic constipation (CIC); assay: Clinical study in CIC patients: pharmacodynamic effects (efficacy), bowel habits; assay type: in vivo, Humans; settings: for time to first bowel movement: after daily dose
Protocol: as §1, §2

[4] = Excipient compatibility: percent purity (HPLC) of SP-304 in binary mixtures stored at 40 C/75RH; assay type: physicochemical
Description: For solid excipients the binary mixtures were comprised of 9.1% or 50% excipient. Glass vials were stored at 40 C/75RH open or closed.

[5] = 14-day repeat oral dosing, CIC patients
[6] = daily treatment 14 days, CIC patients

CC(C)C[C@H](NC(=O)[C@@H]1CSSC[C@@H]2NC(=O)[C@H](CC(C)C)NC(=O)[C@H](CCC(=O)O)NC(=O)[C@@H](NC(=O)[C@H](CCC(=O)O)NC(=O)[C@H](CC(=O)O)NC(=O)[C@@H](N)CC(N)=O)CSSC[C@H](NC(=O)[C@H](C)NC(=O)[C@H](C(C)C)NC(=O)[C@H](CC(N)=O)NC(=O)[C@H](C(C)C)NC2=O)C(=O)N[C@@H]([C@@H](C)O)C(=O)NCC(=O)N1)C(=O)O [SP-304, Asn^1-Asp^2-Glu^3-Cys^4-Glu^5-Leu^6-Cys^7-Val^8-Asn^9-Val^10-Ala^11-Cys^12-Thr^13-Gly^14-Cys^15-Leu^16] (H-NDECELCVNVACTGCL-OH; disulfide 4-12, 7-15)
deaths [1, 5]: no deaths reported
serious adverse events (SAE) [1, 5]: No serious adverse events
diarrhea ([1]; human, in vivo): no diarrhea reported
subjects reporting GI-related adverse events considered as related to treatment ([1]; human, in vivo): 5.2%
subjects reporting adverse events considered as related to the treatment ([1]; human, in vivo): 17.2%
systemic absorption of plecanatide [2]: no detectable systemic absorption
stool consistency ([3]; Bristol Stool Form Scale, daily treatment 14 days): improved
time to first bowel movement ([3]; CIC patients): decreased
time to first bowel movement ([3]; CIC patients, listed as Plecanatide): reduced
abdominal discomfort [3, 6]: reduced
stool frequency (CSBM) [3, 6]: increased
stool frequency (SBM) [3, 6]: increased
straining [3, 6]: reduced
percent purity of SP-304 (HPLC), Closed 1 M ([4]; closed glass vial, 1 month): 91.4%
percent purity of SP-304 (HPLC), Closed 2 M ([4]; closed glass vial, 2 months): 88.2%
percent purity of SP-304 (HPLC), Open 0.5 M ([4]; open glass vial, 0.5 month): 93.7%
percent purity of SP-304 (HPLC), Open 1 M ([4]; open glass vial, 1 month): 91.2%
percent purity of SP-304 (HPLC), Open 2 M ([4]; open glass vial, 2 months): 88.2%
percent purity of SP-304 (HPLC), Open 3 M ([4]; open glass vial, 3 months): 84.8%

— patent publication US9925231B2, “Formulations of guanylate cyclase C agonists and methods of use” (SYNERGY PHARMACEUTICALS, INC., priority 2010, dated 2018)
